The experiment deals with hair bulb root cells (keratinocytes). The experiment is described as follows: In vitro test: cellular proliferation of root cells (keratinocytes) in cultured human scalp fragments, anti-Ki67 immunohistochemistry. Type of experiment: cell-based. The conditions noted are these: cultures stopped on D4, 1.7 μg/ml of miliacin, Ki67-positive cells. On the procedure:
This test consists of studying the cellular proliferation of root cells (keratinocytes). Indeed, as mentioned above, cellular proliferation at the hair bulb matrix promotes hair growth.
Composition A: 1.7 μg/ml of miliacin
Composition B: 150 μg/ml of the composition disclosed herein, Keranat, comprising: • 1.7 μg/ml of miliacin (1.1% of mixture) • 0.30 μg/ml of glycosylceramides and ceramides (0.21% of mixture) • 1.2 μg/ml of phospholipids (0.8% of mixture) Methodology
Human scalp fragments were obtained in plastic surgery from twelve different donors from the occipital area prior to hair implantation. They were deposited in inserts, in turn placed in culture wells. Culture medium specifically suitable for maintaining survival conditions (antibiotic, foetal calf serum (FCS)) was added to the bottom of the wells, running a passage by slow diffusion between the two compartments via a 3 μm thick porous membrane.
The composition is added in dilution at a predetermined dose, in the culture medium to promote contact with the hair bulbs. […]
The root proliferation was analysed by means of immunohistochemistry using an anti-Ki67 antibody marker of phase M, S, G1 and G2 cells in the cell cycle (mouse monoclonal antibody, MIB1 clone, diluted to 1:300, marketed by Dako). […]
On each bulb, the number of positive cells is counted with respect to a total of approximately 100 cells. […]

In the case of miliacin [Composition A], the “Results (% of proliferating cells compared to control)” value is given as “+92%”. In addition, the “Results (% of proliferating cells compared to control)” value (listed as millet oil alone) was found to be 92%.

The values are drawn from US9180135B2, “Miliacin and sphingolipids and/or phospholipids composition for hair and scalp care” (HITEX, priority 2013, dated 2015).
